Laboratory results taken from ChEMBL document CHEMBL4346751, “Comparative analysis of stilbene and benzofuran neolignan derivatives as acetylcholinesterase inhibitors with neuroprotective and anti-inflammatory activities” (Bioorg Med Chem Lett, 2019).
Calls of active or inactive are those of the source. The rule behind the calls is not given here.

Columns and labels:
[1] = biological target: Acetylcholinesterase (Electrophorus electricus) (UniProt O42275); assay: (§1) Inhibition of electric eel AChE using acetylthiocholine iodide as substrate pretreated for 15 mins followed by substrate addition and measured after 60 mins by Ellman's method
Sequence of Acetylcholinesterase (Electrophorus electricus) (O42275 24-633 limits assumed): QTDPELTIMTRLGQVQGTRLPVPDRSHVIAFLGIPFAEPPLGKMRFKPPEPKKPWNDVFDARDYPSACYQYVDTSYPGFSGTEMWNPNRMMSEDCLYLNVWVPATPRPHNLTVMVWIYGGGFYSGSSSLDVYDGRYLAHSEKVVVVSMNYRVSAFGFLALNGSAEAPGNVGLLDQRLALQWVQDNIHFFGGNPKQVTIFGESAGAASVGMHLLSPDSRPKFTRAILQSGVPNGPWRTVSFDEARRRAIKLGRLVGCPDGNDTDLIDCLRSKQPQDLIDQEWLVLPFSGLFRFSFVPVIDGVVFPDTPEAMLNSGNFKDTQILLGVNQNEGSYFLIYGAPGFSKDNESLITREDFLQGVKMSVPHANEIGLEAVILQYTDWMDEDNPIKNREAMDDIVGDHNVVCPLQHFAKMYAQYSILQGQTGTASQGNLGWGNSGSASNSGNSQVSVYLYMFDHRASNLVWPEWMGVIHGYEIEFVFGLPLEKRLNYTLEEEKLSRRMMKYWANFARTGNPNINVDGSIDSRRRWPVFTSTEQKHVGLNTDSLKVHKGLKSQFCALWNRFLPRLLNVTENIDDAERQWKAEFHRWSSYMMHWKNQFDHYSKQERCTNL

RAW264.7 = assay: Antiinflammatory activity in mouse RAW264.7 cells assessed as inhibition of LPS/IFNgamma-induced NO production by measuring NO level preincubated for 2 hrs and followed by LPS/IFNgamma addition and measured after 24 hrs by Griess assay; assay type: functional, cell-based
Acetylcholinesterase = Acetylcholinesterase (Electrophorus electricus, UniProt O42275); assay: as §1
Sequence of Acetylcholinesterase (O42275 whole entry): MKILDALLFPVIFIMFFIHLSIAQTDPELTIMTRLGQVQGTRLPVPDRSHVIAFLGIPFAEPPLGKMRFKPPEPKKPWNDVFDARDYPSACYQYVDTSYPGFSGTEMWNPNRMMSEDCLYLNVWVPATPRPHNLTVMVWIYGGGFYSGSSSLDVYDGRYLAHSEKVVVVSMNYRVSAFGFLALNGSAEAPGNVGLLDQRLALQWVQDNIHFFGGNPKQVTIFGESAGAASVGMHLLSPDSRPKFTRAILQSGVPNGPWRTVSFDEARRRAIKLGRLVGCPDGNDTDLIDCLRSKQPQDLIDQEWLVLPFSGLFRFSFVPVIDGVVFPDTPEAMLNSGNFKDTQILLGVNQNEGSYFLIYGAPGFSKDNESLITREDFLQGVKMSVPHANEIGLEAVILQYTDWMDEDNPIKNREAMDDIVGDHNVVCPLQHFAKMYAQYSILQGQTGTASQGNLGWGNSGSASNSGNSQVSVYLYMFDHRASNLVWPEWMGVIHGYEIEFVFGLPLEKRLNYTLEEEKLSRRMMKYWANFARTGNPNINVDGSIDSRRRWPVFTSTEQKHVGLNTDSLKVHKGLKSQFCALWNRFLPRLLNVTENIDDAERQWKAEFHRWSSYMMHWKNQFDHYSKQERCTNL

PC-12 [2] = assay: Neuroprotective activity against TBHP-induced cellular damage in rat PC12 cells assessed as cell viability at 10 uM pretreated for 1 hr followed by TBHP addition and measured after 3 hrs by CCK8 assay (reference value: 27.3%); assay type: functional; details: for viability at 10 µM: read-out: Activity
[3] = biological target: Acetylcholinesterase (Electrophorus electricus) (UniProt O42275); assay: Inhibition of electric eel AChE at 12.5 uM using acetylthiocholine iodide as substrate pretreated for 15 mins followed by substrate addition and measured after 60 mins by Ellman's method relative to control
PC-12 [4] = assay: Toxicity in TBHP treated rat PC12 cells assessed as reduction cell viability at 10 uM pretreated for 1 hr followed by TBHP addition and measured after 3 hrs by CCK8 assay; assay type: cell-based; details: pc-12, 3 h

Compound | inhibition [1] | IC50 (RAW264.7) | inhibition (RAW264.7) | IC50 (Acetylcholinesterase) | viability at 10 µM (PC-12 [2]) | inhibition [3] | Activity (PC-12 [4]) | Activity (PC-12 [2])
COC(=O)CCc1cc(OC)c2c(c1)[C@H](C(=O)OC)[C@@H](c1ccc(O)c(OC)c1)O2 | inactive | 231 µM | Dose-dependent effect | – | – | – | – | –
COc1cc(/C=C/C(=O)OCCCc2cc(OC)c3c(c2)C(COC(=O)/C=C/c2ccc(O)c(OC)c2)C(c2ccc(O)c(OC)c2)O3)ccc1O (stereo unspecified) | Dose-dependent effect | 9.4 µM | Dose-dependent effect | 29.8 µM | 72.7% | – | – | –
COc1cc(/C=C/c2ccc3c(c2)[C@H](c2cc(OC)cc(OC)c2)[C@@H](c2ccc(O)cc2)O3)cc(OC)c1 | – | 24 µM | Dose-dependent effect | 11.7 µM | 75.5% | > 50% | – | –
Oc1ccc([C@H]2Oc3ccc(/C=C/c4cc(O)cc(O)c4)cc3[C@@H]2c2cc(O)cc(O)c2)cc1 | – | 80.2 µM | Dose-dependent effect | 4.3 µM | 60.2% | > 50% | – | –
COC(=O)/C=C/c1cc(OC)c2c(c1)[C@H](C(=O)OC)[C@@H](c1ccc(O)c(OC)c1)O2 (racemic) | inactive | 51.4 µM | Dose-dependent effect | – | – | – | – | –
COc1cc([C@H]2Oc3c(OC)cc(CCCO)cc3[C@@H]2CO)ccc1O [DIHYDRODEHYDRODICONIFERY ALCOHOL] | inactive | 60.4 µM | Dose-dependent effect | – | – | – | – | –
COc1cc([C@@H]2Oc3c(OC)cc(/C=C/C(=O)NCCc4ccc(O)cc4)cc3[C@H]2C(=O)NCCc2ccc(O)cc2)ccc1O [GROSSAMIDE] | Dose-dependent effect | 24.7 µM | Dose-dependent effect | 39.3 µM | – | – | Toxic | inactive
COc1cc(/C=C/c2ccc(O)cc2)cc(OC)c1 [PTEROSTILBENE] | – | 30 µM | Dose-dependent effect | – | – | – | – | –
O=c1c(O)c(-c2ccc(O)c(O)c2)oc2cc(O)cc(O)c12 [QUERCETIN] | – | – | – | – | 65.1% | – | – | –
Oc1ccc(/C=C/c2cc(O)cc(O)c2)cc1 [RESVERATROL] | – | 44.1 µM | Dose-dependent effect | – | 57.5% | – | – | –
